How the values were obtained:
Format in all cases: biochemical
PI3Kγ = PI3Kγ (Homo sapiens (Human), UniProt P48736); test: PI3K enzyme assay, [γ-33P]ATP filter plate (Example A2), PI3Kγ; settings: read-out: PI3Kγ^c IC50
Description: Materials: Lipid kinase substrate, phosphoinositol-4,5-bisphosphate (PIP2), was purchased from Echelon Biosciences (Salt Lake City, Utah). PI3K isoforms α, β, δ and γ were purchased from Millipore (Bedford, Mass.). ATP, MgCl2, DTT, EDTA, MOPS and CHAPS were purchased from Sigma—Aldrich (St. Louis, Mo.).
(§1) The kinase reaction was conducted in clear-bottom 96-well plate from Thermo Fisher Scientific in a final volume of 24 μL. Inhibitors were first diluted serially in DMSO and added to the plate wells before the addition of other reaction components. The final concentration of DMSO in the assay was 0.5%. The PI3K assays were carried out at room temperature in 20 mM MOPS, pH 6.7, 10 mM MgCl2, 5 mM DTT and CHAPS 0.03%. The reaction mixture was prepared containing 50 μM PIP2, kinase and varying concentration of inhibitors. Reactions were initiated by the addition of ATP containing 2.2 μCi [γ-^33P]ATP to a final concentration of 1000 μM. The final concentration of PI3K isoforms α, β, δ and γ in the assay were 1.3, 9.4, 2.9 and 10.8 nM respectively. Reactions were incubated for 180 min and terminated by the addition of 100 μL of 1 M potassium phosphate pH 8.0, 30 mM EDTA quench buffer. […] After the plate sealing, the radioactivity of the product was determined by scintillation counting on Topcount (Perkin-Elmer). […]

PI3Kβ = PI3Kβ (Homo sapiens (Human), UniProt P42338); test: PI3K enzyme assay, [γ-33P]ATP filter plate (Example A2), PI3Kβ; settings: read-out: PI3Kβ^c IC50
Description: as §1, with “Materials: Lipid kinase substrate, phosphoinositol-4,5-bisphosphate (PIP2), was purchased from Echelon Biosciences (Salt Lake City, Utah). PI3K isoforms α, β, δ and γ were purchased from Millipore (Bedford, Mass.). ATP, MgCl2, DTT, EDTA, MOPS and CHAPS were purchased from Sigma—Aldrich (St. Louis, Mo.). The kinase” for “The kinase”, “1000 μM. […] Reactions were” for “1000 μM. The final concentration of PI3K isoforms α, β, δ and γ in the assay were 1.3, 9.4, 2.9 and 10.8 nM respectively. Reactions were”

PI3Kα = PI3Kα (Homo sapiens (Human), UniProt P42336); test: PI3K enzyme assay, [γ-33P]ATP filter plate (Example A2), PI3Kα; settings: read-out: PI3Kα^c IC50
Description: Materials: Lipid kinase substrate, phosphoinositol-4,5-bisphosphate (PIP2), was purchased from Echelon Biosciences (Salt Lake City, Utah). PI3K isoforms α, β, δ and γ were purchased from Millipore (Bedford, Mass.). […] The kinase reaction was conducted in clear-bottom 96-well plate from Thermo Fisher Scientific in a final volume of 24 μL. Inhibitors were first diluted serially in DMSO and added to the plate wells before the addition of other reaction components. The final concentration of DMSO in the assay was 0.5%. The PI3K assays were carried out at room temperature in 20 mM MOPS, pH 6.7, 10 mM MgCl2, 5 mM DTT and CHAPS 0.03%. The reaction mixture was prepared containing 50 μM PIP2, kinase and varying concentration of inhibitors. Reactions were initiated by the addition of ATP containing 2.2 μCi [γ-^33P]ATP to a final concentration of 1000 μM. […] Reactions were incubated for 180 min and terminated by the addition of 100 μL of 1 M potassium phosphate pH 8.0, 30 mM EDTA quench buffer. […] The filter plate was aspirated on a Millipore Manifold under vacuum and washed with 18×200 μL wash buffer containing 1 M potassium phosphate pH 8.0 and 1 mM ATP. After drying by aspiration and blotting, the plate was air dried in an incubator at 37° C. overnight. […] After the plate sealing, the radioactivity of the product was determined by scintillation counting on Topcount (Perkin-Elmer). […]

Measured: IC50

Chain of PI3Kα (P42336 whole entry, species assumed, canonical isoform): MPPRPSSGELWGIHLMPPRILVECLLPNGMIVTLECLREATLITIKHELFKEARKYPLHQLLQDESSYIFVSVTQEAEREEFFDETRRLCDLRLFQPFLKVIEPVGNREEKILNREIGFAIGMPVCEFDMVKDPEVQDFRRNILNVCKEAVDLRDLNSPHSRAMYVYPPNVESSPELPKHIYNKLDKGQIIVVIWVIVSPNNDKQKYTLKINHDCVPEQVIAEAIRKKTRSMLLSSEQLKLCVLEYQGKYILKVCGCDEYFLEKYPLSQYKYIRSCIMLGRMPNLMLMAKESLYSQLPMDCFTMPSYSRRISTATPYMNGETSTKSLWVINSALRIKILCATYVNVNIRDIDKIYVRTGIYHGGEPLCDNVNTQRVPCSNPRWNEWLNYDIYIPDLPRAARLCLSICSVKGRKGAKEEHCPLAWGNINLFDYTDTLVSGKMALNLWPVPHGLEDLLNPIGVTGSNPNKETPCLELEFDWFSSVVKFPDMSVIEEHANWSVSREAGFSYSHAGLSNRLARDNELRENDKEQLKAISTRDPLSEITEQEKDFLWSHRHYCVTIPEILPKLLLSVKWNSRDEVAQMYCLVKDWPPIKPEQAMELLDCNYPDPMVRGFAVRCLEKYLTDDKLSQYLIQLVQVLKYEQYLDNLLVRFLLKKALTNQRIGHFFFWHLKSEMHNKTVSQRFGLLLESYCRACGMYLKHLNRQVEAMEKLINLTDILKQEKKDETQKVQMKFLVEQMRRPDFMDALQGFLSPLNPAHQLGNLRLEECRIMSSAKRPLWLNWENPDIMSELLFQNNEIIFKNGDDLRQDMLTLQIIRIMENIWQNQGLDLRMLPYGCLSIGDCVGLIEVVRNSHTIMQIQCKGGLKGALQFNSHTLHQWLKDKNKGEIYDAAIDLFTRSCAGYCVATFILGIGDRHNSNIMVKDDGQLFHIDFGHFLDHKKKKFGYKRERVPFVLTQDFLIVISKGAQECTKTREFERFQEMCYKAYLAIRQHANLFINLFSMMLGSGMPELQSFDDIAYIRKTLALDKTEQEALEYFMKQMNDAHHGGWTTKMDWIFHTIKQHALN
Chain of PI3Kα (P27986 whole entry partner, species assumed, canonical isoform): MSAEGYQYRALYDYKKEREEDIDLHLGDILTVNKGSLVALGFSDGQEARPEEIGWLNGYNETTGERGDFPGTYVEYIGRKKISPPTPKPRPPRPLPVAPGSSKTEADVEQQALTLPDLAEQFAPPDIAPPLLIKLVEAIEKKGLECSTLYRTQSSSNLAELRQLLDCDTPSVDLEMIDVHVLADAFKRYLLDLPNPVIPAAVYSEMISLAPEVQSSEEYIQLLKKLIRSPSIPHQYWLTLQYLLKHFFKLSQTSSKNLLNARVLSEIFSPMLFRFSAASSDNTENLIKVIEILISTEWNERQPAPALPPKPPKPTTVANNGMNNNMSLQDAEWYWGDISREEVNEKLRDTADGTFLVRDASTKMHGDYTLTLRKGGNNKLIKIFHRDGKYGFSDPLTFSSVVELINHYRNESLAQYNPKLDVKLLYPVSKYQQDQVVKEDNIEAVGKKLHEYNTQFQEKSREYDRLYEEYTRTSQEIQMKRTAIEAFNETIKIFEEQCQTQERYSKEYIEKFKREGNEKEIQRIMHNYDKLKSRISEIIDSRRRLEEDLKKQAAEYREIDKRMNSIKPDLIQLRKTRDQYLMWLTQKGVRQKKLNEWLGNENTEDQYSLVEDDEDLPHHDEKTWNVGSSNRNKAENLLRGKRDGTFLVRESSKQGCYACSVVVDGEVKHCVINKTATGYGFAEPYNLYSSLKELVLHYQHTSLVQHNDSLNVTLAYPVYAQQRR
Chain of PI3Kγ (P48736 whole entry, species assumed, canonical isoform): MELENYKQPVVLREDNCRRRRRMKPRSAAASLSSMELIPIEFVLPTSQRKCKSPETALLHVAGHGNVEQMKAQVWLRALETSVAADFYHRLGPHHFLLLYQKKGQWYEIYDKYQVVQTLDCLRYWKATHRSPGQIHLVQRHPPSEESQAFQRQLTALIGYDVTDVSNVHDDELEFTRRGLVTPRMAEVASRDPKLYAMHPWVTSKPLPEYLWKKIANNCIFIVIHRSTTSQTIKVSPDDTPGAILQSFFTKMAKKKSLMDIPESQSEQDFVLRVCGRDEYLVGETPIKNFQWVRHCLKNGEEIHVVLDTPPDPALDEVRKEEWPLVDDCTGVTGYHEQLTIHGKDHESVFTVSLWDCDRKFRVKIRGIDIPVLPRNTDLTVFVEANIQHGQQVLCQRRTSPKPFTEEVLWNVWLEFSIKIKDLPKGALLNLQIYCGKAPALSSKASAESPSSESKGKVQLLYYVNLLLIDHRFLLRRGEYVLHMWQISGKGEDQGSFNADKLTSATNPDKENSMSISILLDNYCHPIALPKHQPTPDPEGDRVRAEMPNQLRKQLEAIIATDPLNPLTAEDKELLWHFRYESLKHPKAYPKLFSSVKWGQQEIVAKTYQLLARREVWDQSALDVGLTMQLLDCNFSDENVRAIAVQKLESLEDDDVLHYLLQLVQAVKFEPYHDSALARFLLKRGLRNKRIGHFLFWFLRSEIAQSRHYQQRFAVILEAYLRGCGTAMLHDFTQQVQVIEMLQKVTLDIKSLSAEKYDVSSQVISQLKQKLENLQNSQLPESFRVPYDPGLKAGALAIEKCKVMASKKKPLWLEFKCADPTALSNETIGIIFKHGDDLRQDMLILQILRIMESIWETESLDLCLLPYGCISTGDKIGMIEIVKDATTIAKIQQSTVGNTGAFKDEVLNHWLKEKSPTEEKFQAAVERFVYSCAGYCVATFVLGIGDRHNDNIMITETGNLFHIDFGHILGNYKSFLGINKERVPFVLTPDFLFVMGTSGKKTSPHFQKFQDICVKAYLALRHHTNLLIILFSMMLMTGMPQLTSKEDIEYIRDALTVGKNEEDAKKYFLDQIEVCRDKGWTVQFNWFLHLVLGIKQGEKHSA
Chain of PI3Kβ (P42338 whole entry, species assumed, canonical isoform): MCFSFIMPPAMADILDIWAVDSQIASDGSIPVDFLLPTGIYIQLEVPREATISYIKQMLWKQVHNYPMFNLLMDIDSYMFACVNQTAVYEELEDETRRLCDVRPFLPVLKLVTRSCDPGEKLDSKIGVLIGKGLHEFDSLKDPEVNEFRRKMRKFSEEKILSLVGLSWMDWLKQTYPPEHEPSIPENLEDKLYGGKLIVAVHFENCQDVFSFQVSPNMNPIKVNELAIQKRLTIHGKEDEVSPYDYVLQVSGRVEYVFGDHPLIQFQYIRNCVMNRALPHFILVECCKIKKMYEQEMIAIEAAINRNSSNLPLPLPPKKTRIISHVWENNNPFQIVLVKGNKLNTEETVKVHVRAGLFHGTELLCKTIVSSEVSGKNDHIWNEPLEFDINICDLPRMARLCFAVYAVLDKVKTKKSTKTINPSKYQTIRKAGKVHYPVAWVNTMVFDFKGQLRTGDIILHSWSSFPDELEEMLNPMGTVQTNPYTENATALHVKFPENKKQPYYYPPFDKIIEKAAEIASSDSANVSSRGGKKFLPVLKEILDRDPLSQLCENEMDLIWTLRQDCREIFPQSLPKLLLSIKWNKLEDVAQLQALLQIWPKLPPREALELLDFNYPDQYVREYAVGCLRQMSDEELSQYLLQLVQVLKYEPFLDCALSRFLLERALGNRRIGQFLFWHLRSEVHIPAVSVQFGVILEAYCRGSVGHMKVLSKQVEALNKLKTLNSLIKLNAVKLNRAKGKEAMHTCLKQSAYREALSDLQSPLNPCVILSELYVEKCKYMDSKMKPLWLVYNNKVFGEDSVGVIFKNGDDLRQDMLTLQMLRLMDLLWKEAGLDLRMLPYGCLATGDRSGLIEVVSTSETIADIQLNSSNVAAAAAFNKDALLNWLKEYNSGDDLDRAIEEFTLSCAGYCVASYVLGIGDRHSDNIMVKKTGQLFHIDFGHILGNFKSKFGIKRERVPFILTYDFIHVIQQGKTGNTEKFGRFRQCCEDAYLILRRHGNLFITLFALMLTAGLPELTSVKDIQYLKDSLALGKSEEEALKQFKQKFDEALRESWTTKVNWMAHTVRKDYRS
Chain of PI3Kβ (P27986 whole entry partner, species assumed, canonical isoform): as the sequence (P27986 whole entry partner, species assumed, canonical isoform) above

Cc1csc2nc(C(C)Nc3ncnc4[nH]cnc34)c(-c3cc(F)cc(F)c3)c(=O)n12 (single isomer, unassigned) [Example 44, 6-(3,5-difluorophenyl)-3-methyl-7-[1-(9H-purin-6-ylamino)ethyl]-5H-[1,3]thiazolo[3,2-a]pyrimidin-5-one]
> 500 nM: all assays above

— patent US10428087B2, “Pyrimidinones as PI3K inhibitors” (Incyte Corporation, priority 2009, dated 2019)
